Our source for the IC50 values is patent publication US8003785B2 (Takeda Pharmaceutical Company Limited, priority 2008, dated 2011).

T1 sequence (P53350 whole entry): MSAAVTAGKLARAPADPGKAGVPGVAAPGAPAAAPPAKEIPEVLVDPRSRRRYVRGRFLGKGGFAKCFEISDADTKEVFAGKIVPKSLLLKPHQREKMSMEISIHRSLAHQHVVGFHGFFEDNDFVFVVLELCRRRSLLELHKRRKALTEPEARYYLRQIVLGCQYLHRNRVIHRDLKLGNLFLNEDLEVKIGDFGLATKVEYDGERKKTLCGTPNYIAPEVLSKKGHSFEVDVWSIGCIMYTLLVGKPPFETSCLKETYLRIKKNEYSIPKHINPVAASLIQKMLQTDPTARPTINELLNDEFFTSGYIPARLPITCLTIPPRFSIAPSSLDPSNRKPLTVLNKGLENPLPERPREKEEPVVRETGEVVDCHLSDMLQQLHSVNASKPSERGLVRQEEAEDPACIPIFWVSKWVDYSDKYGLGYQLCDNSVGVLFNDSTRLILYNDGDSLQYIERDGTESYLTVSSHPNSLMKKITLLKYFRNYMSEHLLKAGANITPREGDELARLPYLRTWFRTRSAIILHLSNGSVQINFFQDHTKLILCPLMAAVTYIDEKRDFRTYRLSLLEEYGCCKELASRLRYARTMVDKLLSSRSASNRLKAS

This assay concerns the target T1, PLK1 (Homo sapiens, UniProt P53350).
T1 construct: Full-length, active GST-PLK1 is purified from Sf9 insect cells; made in house; host or cells: Sf9 insect cells
In words: Biochemical Characterization Assay: HTRF kinase assay, GST-PLK1 phosphorylation of GST-p53. To be noted: GST-PLK1, GST-p53 substrate, ATP. As for the experimental part:
Biochemical Characterization Assay
Full-length, active GST-PLK1 is purified from Sf9 insect cells, and full-length GST-p53 is purified from E. coli. Anti-phospho p53 antibody is from Cell Signaling Technology. Europium-conjugated anti-rabbit antibody is from PerkinElmer Life and Analytical Sciences. APC-conjugated anti-GST antibody is from Prozyme.
Six microliters of GST-PLK1 (3 ug/mL) in Kinase Assay Buffer are then added and the solution incubated at 37° C. for 35 minutes. Six microliters of solution containing 43 mM EDTA to stop the reaction and a 1:600 dilution of anti-phospho-p53 antibody in 20 mM HEPES pH 7, 50 mM NaCl, and 0.5 mg/mL BSA (Antibody Binding Buffer) are added and the solution incubated at 37° C. for 30 minutes. […] The HTRF signal is read on an Envision reader from PerkinElmer Life and Analytical Sciences.
With `CN1C(=O)C(F)(F)CN(C2CCC2)c2nc(Nc3ccc(C(=O)NC4CCNCC4)cc3)ncc21` [Example I-14, 4-(9-cyclobutyl-7,7-difluoro-5-methyl-6-oxo-6,7,8,9-tetrahydro-5H-pyrimido[4,5-b][1,4]diazepin-2-ylamino)-N-piperidin-4-yl-benzamide], the IC50 lay in the range of 1 to 50 nM.
The result for `CN1C(=O)C(F)(F)CN(C2CCC2)c2nc(Nc3ccc(C(=O)N4CCC(N)CC4)cc3)ncc21` [Example I-15, 2-[4-(4-amino-piperidine-1-carbonyl)-phenylamino]-9-cyclobutyl-7,7-difluoro-5-methyl-5,7,8,9-tetrahydro-pyrimido[4,5-b][1,4]diazepin-6-one] reads 51 to 500 nM; that for `CN1CCC(NC(=O)c2ccc(Nc3ncc4c(n3)N(C3CCC3)CC(F)(F)C(=O)N4C)cc2)CC1` [Example I-16, 4-(9-cyclobutyl-7,7-difluoro-5-methyl-6-oxo-6,7,8,9-tetrahydro-5H-pyrimido[4,5-b][1,4]diazepin-2-ylamino)-N-(1-methyl-piperidin-4-yl)-benzamide], 1 to 50 nM; that for `CN1C(=O)C(F)(F)CN(C2CCC2)c2nc(Nc3ccc(C(=O)NC4CCOCC4)cc3)ncc21` [Example I-17, 4-(9-cyclobutyl-7,7-difluoro-5-methyl-6-oxo-6,7,8,9-tetrahydro-5H-pyrimido[4,5-b][1,4]diazepin-2-ylamino)-N-(tetrahydro-pyran-4-yl)-benzamide], 1 to 50 nM.
With `CN(C)CCNC(=O)c1ccc(Nc2ncc3c(n2)N(C2CCC2)CC(F)(F)C(=O)N3C)cc1` [Example I-18, 4-(9-cyclobutyl-7,7-difluoro-5-methyl-6-oxo-6,7,8,9-tetrahydro-5H-pyrimido[4,5-b][1,4]diazepin-2-ylamino)-N-(2-dimethylamino-ethyl)-benzamide], the IC50 was in the range of 1 to 50 nM.
The figure for `CN(C)CCCNC(=O)c1ccc(Nc2ncc3c(n2)N(C2CCC2)CC(F)(F)C(=O)N3C)cc1` [Example I-19, 4-(9-cyclobutyl-7,7-difluoro-5-methyl-6-oxo-6,7,8,9-tetrahydro-5H-pyrimido[4,5-b][1,4]diazepin-2-ylamino)-N-(3-dimethylamino-propyl)-benzamide] is 1 to 50 nM; for `COc1cc(C(N)=O)ccc1Nc1ncc2c(n1)N(C1CCCC1)CC(F)(F)C(=O)N2C` [Example I-23, 4-(9-cyclopentyl-7,7-difluoro-5-methyl-6-oxo-6,7,8,9-tetrahydro-5H-pyrimido[4,5-b][1,4]diazepin-2-ylamino)-3-methoxy-benzamide] it is 1 to 50 nM; for `CNC(=O)c1ccc(Nc2ncc3c(n2)N(C2CCCC2)CC(F)(F)C(=O)N3C)c(OC)c1` [Example I-24, 4-(9-cyclopentyl-7,7-difluoro-5-methyl-6-oxo-6,7,8,9-tetrahydro-5H-pyrimido[4,5-b][1,4]diazepin-2-ylamino)-3-methoxy-N-methyl-benzamide] it is 1 to 50 nM.
Molecule `COc1cc(C(=O)NC(C)C)ccc1Nc1ncc2c(n1)N(C1CCCC1)CC(F)(F)C(=O)N2C` [Example I-25, 4-(9-cyclopentyl-7,7-difluoro-5-methyl-6-oxo-6,7,8,9-tetrahydro-5H-pyrimido[4,5-b][1,4]diazepin-2-ylamino)-N-isopropyl-3-methoxy-benzamide] yielded an IC50 of 1 to 50 nM.
The figure for `COc1cc(C(=O)NC2CC2)ccc1Nc1ncc2c(n1)N(C1CCCC1)CC(F)(F)C(=O)N2C` [Example I-26, 4-(9-cyclopentyl-7,7-difluoro-5-methyl-6-oxo-6,7,8,9-tetrahydro-5H-pyrimido[4,5-b][1,4]diazepin-2-ylamino)-N-cyclopropyl-3-methoxy-benzamide] is 1 to 50 nM.
`COc1cc(C(=O)NC2CCCCC2)ccc1Nc1ncc2c(n1)N(C1CCCC1)CC(F)(F)C(=O)N2C` [Example I-27, N-cyclohexyl-4-(9-cyclopentyl-7,7-difluoro-5-methyl-6-oxo-6,7,8,9-tetrahydro-5H-pyrimido[4,5-b][1,4]diazepin-2-ylamino)-3-methoxy-benzamide] showed an IC50 of 1 to 50 nM.
In the case of `COCCNC(=O)c1ccc(Nc2ncc3c(n2)N(C2CCCC2)CC(F)(F)C(=O)N3C)c(OC)c1` [Example I-28, 4-(9-cyclopentyl-7,7-difluoro-5-methyl-6-oxo-6,7,8,9-tetrahydro-5H-pyrimido[4,5-b][1,4]diazepin-2-ylamino)-3-methoxy-N-(2-methoxy-ethyl)-benzamide], the IC50 was in the range of 1 to 50 nM.
The result for `COCCCNC(=O)c1ccc(Nc2ncc3c(n2)N(C2CCCC2)CC(F)(F)C(=O)N3C)c(OC)c1` [Example I-29, 4-(9-cyclopentyl-7,7-difluoro-5-methyl-6-oxo-6,7,8,9-tetrahydro-5H-pyrimido[4,5-b][1,4]diazepin-2-ylamino)-3-methoxy-N-(3-methoxy-propyl)-benzamide] reads 1 to 50 nM; that for `COc1cc(C(=O)NCCO)ccc1Nc1ncc2c(n1)N(C1CCCC1)CC(F)(F)C(=O)N2C` [Example I-30, 4-(9-cyclopentyl-7,7-difluoro-5-methyl-6-oxo-6,7,8,9-tetrahydro-5H-pyrimido[4,5-b][1,4]diazepin-2-ylamino)-N-(2-hydroxy-ethyl)-3-methoxy-benzamide], 1 to 50 nM.
On to `COc1cc(C(=O)NCC(F)(F)F)ccc1Nc1ncc2c(n1)N(C1CCCC1)CC(F)(F)C(=O)N2C` [Example I-31, 4-(9-cyclopentyl-7,7-difluoro-5-methyl-6-oxo-6,7,8,9-tetrahydro-5H-pyrimido[4,5-b][1,4]diazepin-2-ylamino)-3-methoxy-N-(2,2,2-trifluoro-ethyl)-benzamide], for which the IC50 was in the range of 1 to 50 nM.
The result for `COc1cc(C(=O)NCC2CCCCC2)ccc1Nc1ncc2c(n1)N(C1CCCC1)CC(F)(F)C(=O)N2C` [Example I-32, N-cyclohexylmethyl-4-(9-cyclopentyl-7,7-difluoro-5-methyl-6-oxo-6,7,8,9-tetrahydro-5H-pyrimido[4,5-b][1,4]diazepin-2-ylamino)-3-methoxy-benzamide] reads 51 to 500 nM; that for `COc1cc(C(=O)NCc2ccsc2)ccc1Nc1ncc2c(n1)N(C1CCCC1)CC(F)(F)C(=O)N2C` [Example I-33, 4-(9-cyclopentyl-7,7-difluoro-5-methyl-6-oxo-6,7,8,9-tetrahydro-5H-pyrimido[4,5-b][1,4]diazepin-2-ylamino)-3-methoxy-N-thiophen-3-ylmethyl-benzamide], 51 to 500 nM; that for `COc1cc(C(=O)NCc2ccoc2)ccc1Nc1ncc2c(n1)N(C1CCCC1)CC(F)(F)C(=O)N2C` [Example I-34, 4-(9-cyclopentyl-7,7-difluoro-5-methyl-6-oxo-6,7,8,9-tetrahydro-5H-pyrimido[4,5-b][1,4]diazepin-2-ylamino)-N-furan-3-ylmethyl-3-methoxy-benzamide], 1 to 50 nM.
The figure for `COc1cc(C(=O)NCc2ccccc2)ccc1Nc1ncc2c(n1)N(C1CCCC1)CC(F)(F)C(=O)N2C` [Example I-35, N-benzyl-4-(9-cyclopentyl-7,7-difluoro-5-methyl-6-oxo-6,7,8,9-tetrahydro-5H-pyrimido[4,5-b][1,4]diazepin-2-ylamino)-3-methoxy-benzamide] is 51 to 500 nM.
The result for `COc1cc(C(=O)NCc2ccc(C(F)(F)F)cc2)ccc1Nc1ncc2c(n1)N(C1CCCC1)CC(F)(F)C(=O)N2C` [Example I-36, 4-(9-cyclopentyl-7,7-difluoro-5-methyl-6-oxo-6,7,8,9-tetrahydro-5H-pyrimido[4,5-b][1,4]diazepin-2-ylamino)-3-methoxy-N-(4-trifluoromethyl-benzyl)-benzamide] reads 500 to 5000 nM.
`COc1cc(C(=O)Nc2ccccc2)ccc1Nc1ncc2c(n1)N(C1CCCC1)CC(F)(F)C(=O)N2C` [Example I-38, 4-(9-cyclopentyl-7,7-difluoro-5-methyl-6-oxo-6,7,8,9-tetrahydro-5H-pyrimido[4,5-b][1,4]diazepin-2-ylamino)-3-methoxy-N-phenyl-benzamide] displayed an IC50 of 51 to 500 nM.
The result for `COc1cc(C(=O)NCCCCO)ccc1Nc1ncc2c(n1)N(C1CCCC1)CC(F)(F)C(=O)N2C` [Example I-39, 4-(9-cyclopentyl-7,7-difluoro-5-methyl-6-oxo-6,7,8,9-tetrahydro-5H-pyrimido[4,5-b][1,4]diazepin-2-ylamino)-N-(4-hydroxy-butyl)-3-methoxy-benzamide] reads 1 to 50 nM; that for `CCOCCNC(=O)c1ccc(Nc2ncc3c(n2)N(C2CCCC2)CC(F)(F)C(=O)N3C)c(OC)c1` [Example I-40, 4-(9-cyclopentyl-7,7-difluoro-5-methyl-6-oxo-6,7,8,9-tetrahydro-5H-pyrimido[4,5-b][1,4]diazepin-2-ylamino)-N-(2-ethoxy-ethyl)-3-methoxy-benzamide], 1 to 50 nM; that for `COc1cc(C(=O)NCCCO)ccc1Nc1ncc2c(n1)N(C1CCCC1)CC(F)(F)C(=O)N2C` [Example I-41, 4-(9-cyclopentyl-7,7-difluoro-5-methyl-6-oxo-6,7,8,9-tetrahydro-5H-pyrimido[4,5-b][1,4]diazepin-2-ylamino)-N-(3-hydroxy-propyl)-3-methoxy-benzamide], 1 to 50 nM.
In the case of `COc1cc(C(=O)NCc2cc(Cl)cc(Cl)c2)ccc1Nc1ncc2c(n1)N(C1CCCC1)CC(F)(F)C(=O)N2C` [Example I-42, 4-(9-cyclopentyl-7,7-difluoro-5-methyl-6-oxo-6,7,8,9-tetrahydro-5H-pyrimido[4,5-b][1,4]diazepin-2-ylamino)-N-(3,5-dichloro-benzyl)-3-methoxy-benzamide], the IC50 was in the range of 1 to 50 nM.
